# Results taken from ChEMBL document CHEMBL4354781, “Drug-resistance in Mycobacterium tuberculosis: where we stand” (2019).
# Numbered stars: 1 amine (or outer) side, 2 acyl side, 3 side chain; on linkers, the order of the positions; unused ones are H or OH. Bridge positions count the residues as written; N and C are the ends. Square brackets hold non-standard residues; d marks the D form. Peptide text beside a SMILES is read from it. * marks the point of attachment. X1 = N=C1NCC[C@H]([C@H](N[*:1])C(=O)[*:2])N1; ΔAla(Z-3-ureido) = NC(=O)N/C=C(\N)C(=O)O; β3hOrn = NCCC[C@H](N)CC(=O)*; Dap = NC[C@H](N)C(=O)O
# Key:
# Assay type in all cases: functional
# [1] = tested on: Mycobacterium tuberculosis; experiment: Antitubercular activity against resistant Mycobacterium tuberculosis harboring rrs A1401G mutant after 3 to 6 weeks
# [2] = tested on: Mycobacterium tuberculosis; experiment: Antitubercular activity against resistant Mycobacterium tuberculosis harboring rrs A1401G mutant
# [3] = tested on: Mycobacterium tuberculosis; experiment: Antitubercular activity against resistant Mycobacterium tuberculosis harboring embCAB Met306IIe/Val mutant
# [4] = tested on: Mycobacterium tuberculosis; experiment: Antitubercular activity against resistant Mycobacterium tuberculosis harboring embCAB Gly406Asp/Ala mutant
# [5] = tested on: Mycobacterium tuberculosis; experiment: Antitubercular activity against resistant Mycobacterium tuberculosis TDR harboring inhA Promoter (c-15 t) mutant
# [6] = tested on: Mycobacterium tuberculosis; experiment: Antitubercular activity against resistant Mycobacterium tuberculosis Bangladesh isolate harboring inhA Promoter (c-15 t)/IIe21Thr mutant
# [7] = tested on: Mycobacterium tuberculosis; experiment: Antitubercular activity against resistant Mycobacterium tuberculosis TDR harboring inhA Promoter (c-15 t)/IIe21Thr mutant
# [8] = tested on: Mycobacterium tuberculosis; experiment: Antitubercular activity against resistant Mycobacterium tuberculosis TDR harboring inhA Promoter (c-15 t)/Ser94Ala mutant
# [9] = tested on: Mycobacterium tuberculosis; experiment: Antitubercular activity against resistant Mycobacterium tuberculosis Bangladesh isolate harboring katG Ser315Thr mutant
# [10] = tested on: Mycobacterium tuberculosis; experiment: Antitubercular activity against resistant Mycobacterium tuberculosis TDR harboring katG Ser315Thr mutant
# [11] = tested on: Mycobacterium tuberculosis; experiment: Antitubercular activity against resistant Mycobacterium tuberculosis Bangladesh isolate harboring inhA Promoter (c-15 t)/Ser94Ala mutant
# [12] = tested on: Mycobacterium tuberculosis; experiment: Antitubercular activity against resistant Mycobacterium tuberculosis Bangladesh isolate harboring inhA Promoter (c-15 t)
# [13] = tested on: Mycobacterium tuberculosis; experiment: Antitubercular activity against resistant Mycobacterium tuberculosis harboring rrs G1484T/C-12T mutant after 3 to 6 weeks
# [14] = tested on: Mycobacterium tuberculosis; experiment: Antitubercular activity against resistant Mycobacterium tuberculosis harboring rrs G37T mutant after 3 to 6 weeks
# [15] = tested on: Mycobacterium tuberculosis; experiment: Antitubercular activity against resistant Mycobacterium tuberculosis harboring rrs C1402T mutant after 3 to 6 weeks
# [16] = tested on: Mycobacterium tuberculosis; experiment: Antitubercular activity against resistant Mycobacterium tuberculosis harboring gyrB Ala90Val mutant incubated for 28 days by absolute concentration method
# [17] = tested on: Mycobacterium tuberculosis; experiment: Antitubercular activity against resistant Mycobacterium tuberculosis harboring gyrA Asp94Asn mutant incubated for 28 days by absolute concentration method
# [18] = tested on: Mycobacterium tuberculosis; experiment: Antitubercular activity against resistant Mycobacterium tuberculosis harboring gyrB T511N mutant incubated for 28 days by absolute concentration method
# [19] = tested on: Mycobacterium tuberculosis; experiment: Antitubercular activity against resistant Mycobacterium tuberculosis harboring gyrA Asp94Tyr mutant incubated for 28 days by absolute concentration method
# [20] = tested on: Mycobacterium tuberculosis; experiment: Antitubercular activity against resistant Mycobacterium tuberculosis harboring gyrA Asp94Gly mutant incubated for 28 days by absolute concentration method
# [21] = tested on: Mycobacterium tuberculosis; experiment: Antitubercular activity against resistant Mycobacterium tuberculosis harboring gyrA Asp94His mutant incubated for 28 days by absolute concentration method
# [22] = tested on: Mycobacterium tuberculosis; experiment: Antitubercular activity against resistant Mycobacterium tuberculosis harboring rplC Cys154Arg mutant
# [23] = tested on: Mycobacterium tuberculosis; experiment: Antitubercular activity against multidrug resistant Mycobacterium tuberculosis
# [24] = tested on: Mycobacterium tuberculosis; experiment: Antitubercular activity against resistant Mycobacterium tuberculosis harboring pncA D8N mutant incubated for 3 weeks
# [25] = tested on: Mycobacterium tuberculosis; experiment: Antitubercular activity against resistant Mycobacterium tuberculosis harboring pncA Cys138S mutant incubated for 3 weeks
# [26] = tested on: Mycobacterium tuberculosis; experiment: Antitubercular activity against resistant Mycobacterium tuberculosis 2 harboring rpoB Ser531Leu mutant after 4 weeks by absolute concentration-microtiter method
# [27] = tested on: Mycobacterium tuberculosis; experiment: Antitubercular activity against resistant Mycobacterium tuberculosis 74 harboring rpoB His526Tyr mutant by absolute concentration-microtiter method
# [28] = tested on: Mycobacterium tuberculosis; experiment: Antitubercular activity against resistant Mycobacterium tuberculosis 8 harboring rpoB His526Pro mutant by absolute concentration-microtiter method
# [29] = tested on: Mycobacterium tuberculosis; experiment: Antitubercular activity against resistant Mycobacterium tuberculosis 3 harboring rpoB Ser531Leu mutant after 4 weeks by absolute concentration-microtiter method
# [30] = tested on: Mycobacterium tuberculosis; experiment: Antitubercular activity against resistant Mycobacterium tuberculosis 5 harboring rpoB His526Tyr mutant by absolute concentration-microtiter method
# [31] = tested on: Mycobacterium tuberculosis; experiment: Antitubercular activity against resistant Mycobacterium tuberculosis 75 harboring rpoB Ser531Leu mutant after 4 weeks by absolute concentration-microtiter method
# [32] = tested on: Mycobacterium tuberculosis; experiment: Antitubercular activity against resistant Mycobacterium tuberculosis 21 harboring rpoB Ser531Leu mutant after 4 weeks by absolute concentration-microtiter method
# [33] = tested on: Mycobacterium tuberculosis; experiment: Antitubercular activity against resistant Mycobacterium tuberculosis 4 harboring rpoB Ser531Leu mutant after 4 weeks by absolute concentration-microtiter method
# [34] = tested on: Mycobacterium tuberculosis; experiment: Antitubercular activity against resistant Mycobacterium tuberculosis 26 harboring rpoB Ser531Leu mutant after 4 weeks by absolute concentration-microtiter method
# [35] = tested on: Mycobacterium tuberculosis; experiment: Antitubercular activity against resistant Mycobacterium tuberculosis 6 harboring rpoB Ser531Leu mutant after 4 weeks by absolute concentration-microtiter method
# [36] = tested on: Mycobacterium tuberculosis; experiment: Antitubercular activity against resistant Mycobacterium tuberculosis 76 harboring rpoB Ser531Leu mutant after 4 weeks by absolute concentration-microtiter method
# [37] = tested on: Mycobacterium tuberculosis; experiment: Antitubercular activity against resistant Mycobacterium tuberculosis 7 harboring rpoB His526Tyr mutant by absolute concentration-microtiter method
# [38] = tested on: Mycobacterium tuberculosis; experiment: Antitubercular activity against resistant Mycobacterium tuberculosis 23 harboring rpoB His526Asp mutant by absolute concentration-microtiter method
# [39] = tested on: Mycobacterium tuberculosis; experiment: Antitubercular activity against resistant Mycobacterium tuberculosis 1 harboring rpoB Ser531Leu mutant after 4 weeks by absolute concentration-microtiter method
# [40] = tested on: Mycobacterium tuberculosis; experiment: Antitubercular activity against resistant Mycobacterium tuberculosis 72 harboring rpoB His526Asp mutant by absolute concentration-microtiter method
# [41] = tested on: Mycobacterium tuberculosis; experiment: Antitubercular activity against resistant Mycobacterium tuberculosis 73 harboring rpoB His526Tyr mutant by absolute concentration-microtiter method
structure (smiles),measurement,setting,value
N=C1NCC[C@H]([C@@H]2NC(=O)/C(=C/NC(N)=O)NC(=O)[C@H](CNC(=O)C[C@@H](N)CCCN)NC(=O)[C@H](CO)NC(=O)[C@@H](N)CNC2=O)N1 (H-[Dap]S[Dap](β3hOrn)[ΔAla(Z-3-ureido)][X1]; lactam 1-C),MIC,[1],>2.5 µg/mL
NCC[C@H](O)C(=O)N[C@@H]1C[C@H](N)[C@@H](O[C@H]2O[C@H](CN)[C@@H](O)[C@H](O)[C@H]2O)[C@H](O)[C@H]1O[C@H]1O[C@H](CO)[C@@H](O)[C@H](N)[C@H]1O [AMIKACIN],MIC,[2],4 µg/mL
CC[C@@H](CO)NCCN[C@@H](CC)CO [ETHAMBUTOL],MIC,[3],10 to 50 µg/mL
same,MIC,[4],10 to 50 µg/mL
NNC(=O)c1ccncc1 [ISONIAZID],MIC,[5],0.16 to 0.8 µg/mL
same,MIC,[6],3.2 to 12.8 µg/mL
same,MIC,[7],3.2 to 12.8 µg/mL
same,MIC,[8],3.2 to 12.8 µg/mL
same,MIC,[9],>19.2 µg/mL
same,MIC,[10],>19.2 µg/mL
same,MIC,[11],3.2 to 12.8 µg/mL
same,MIC,[12],0.16 to 0.8 µg/mL
NC[C@H]1O[C@H](O[C@H]2[C@H](O)[C@@H](O[C@H]3O[C@H](CO)[C@@H](O)[C@H](N)[C@H]3O)[C@H](N)C[C@@H]2N)[C@H](O)[C@@H](O)[C@@H]1O [KANAMYCIN],MIC,[1],>2.5 µg/mL
same,MIC,[13],>2.5 µg/mL
same,MIC,[14],>2.5 µg/mL
same,MIC,[15],>2.5 µg/mL
C[C@H]1COc2c(N3CCN(C)CC3)c(F)cc3c(=O)c(C(=O)O)cn1c23.C[C@H]1COc2c(N3CCN(C)CC3)c(F)cc3c(=O)c(C(=O)O)cn1c23.O [LEVOFLOXACIN],MIC,[16],>1 µg/mL
same,MIC,[17],>10 µg/mL
same,MIC,[18],>1 µg/mL
same,MIC,[19],>10 µg/mL
same,MIC,[20],>10 µg/mL
same,MIC,[21],>10 µg/mL
CC(=O)NC[C@H]1CN(c2ccc(N3CCOCC3)c(F)c2)C(=O)O1 [LINEZOLID],MIC,[22],>1 µg/mL
same,MIC,[23],0.125 to 0.5 µg/mL
NC(=O)c1cnccn1 [PYRAZINAMIDE],MIC,[24],>=400 - 800 ug ml-1
same,MIC,[25],>=400 - 800 ug ml-1
CO[C@H]1/C=C/O[C@@]2(C)Oc3c(C)c(O)c4c(O)c(c(/C=N/N5CCN(C)CC5)c(O)c4c3C2=O)NC(=O)/C(C)=C\C=C\[C@H](C)[C@H](O)[C@@H](C)[C@@H](O)[C@@H](C)[C@H](OC(C)=O)[C@@H]1C [RIFAMPIN],MIC,[26],>=2 - 200 ug ml-1
same,MIC,[27],>=2 - 200 ug ml-1
same,MIC,[28],>=2 - 200 ug ml-1
same,MIC,[29],>=2 - 200 ug ml-1
same,MIC,[30],>=2 - 200 ug ml-1
same,MIC,[31],>=2 - 200 ug ml-1
same,MIC,[32],>=2 - 200 ug ml-1
same,MIC,[33],>=2 - 200 ug ml-1
same,MIC,[34],>=2 - 200 ug ml-1
same,MIC,[35],>=2 - 200 ug ml-1
same,MIC,[36],>=2 - 200 ug ml-1
same,MIC,[37],>=2 - 200 ug ml-1
same,MIC,[38],>=2 - 200 ug ml-1
same,MIC,[39],>=2 - 200 ug ml-1
same,MIC,[40],>=2 - 200 ug ml-1
same,MIC,[41],>=2 - 200 ug ml-1
